Experimental findings from ChEMBL document CHEMBL4266060, “Structure-Property Relationship Studies of Influenza A Virus AM2-S31N Proton Channel Blockers” (ACS Med Chem Lett, 2018) are described below.

Each structure is given as a SMILES string. Where only a bound is given, the exact number is not on record here.

Test [1] concerns Influenza A virus. The experiment in a line: microbe, parasite or virus in culture. The following applies: MDCK.
Test [2] deals with Influenza A virus. The experiment in a line: microbe, parasite or virus in culture. The following applies: A/North Carolina/29/2009(H1N1), MDCK.
Test [3] has as its system Influenza A virus. The experiment in a line: microbe, parasite or virus in culture. The following applies: MDCK. The source holds these as a separate data set.
The test system of test [4] is Influenza A virus. In words: microbe, parasite or virus in culture. The following applies: MDCK. The source holds these as a separate data set.
For test [5], the system named is Influenza A virus. The experiment in a line: microbe, parasite or virus in culture. The settings on record: MDCK. The source holds these as a separate data set.
Test [6] deals with Influenza A virus. The following applies: mdck.

For orientation: EC50 means the concentration that produces a half-maximal response. Read a high EC50 as a less potent agent. For the molecule `OC12CC3CC(C1)CC(NCc1ccc(Br)s1)(C3)C2`, the EC50 in test [1] turned out to be 600 nM; in test [2], 2800 nM; in test [3], 2000 nM; in test [4], 700 nM; in test [5], 1400 nM.
`OC12CC3CC(C1)CC(NCc1ccc(I)s1)(C3)C2`: the EC50 in test [1] stood at 600 nM; in test [6], 1100 nM; in test [3] it was 700 nM; in test [4] it was 400 nM; in test [5], 800 nM.
On to `CCC(CC)O[C@@H]1C=C(C(=O)O)C[C@H](N)[C@H]1NC(C)=O` [OSELTAMIVIR CARBOXYLATE], for which the EC50 was > 200 nM in test [1]; > 200 nM in test [2]; > 200 nM in test [3]; > 200 nM in test [4]; 2.5 nM in test [5].
